Laboratory results as given in patent publication US11427567B2, “Imidazolyl pyrimidinylamine compounds as CDK2 inhibitors” (Incyte Corporation, priority 2019, dated 2022).
pIC50: −log10 of the molar value.

What follows are compounds tested against CDK2/Cyclin E1 (Homo sapiens (Human), UniProt P24941) (assay: CDK2/Cyclin E1 HTRF enzyme activity assay (Example A)). Conditions: 1 mM ATP.
Format: biochemical
Description: Assays were conducted in white 384-well polystyrene plates in a final reaction volume of 8 μL. […] HTRF signals were read after 1 hour at room temperature on a PHERAstar FS plate reader (BMG Labtech). Data was analyzed with IDBS XLFit and GraphPad Prism 5.0 software using a three or four parameter dose response curve to determine IC50 for each compound.

pIC50, ≥ 7.30:
Cc1nc(-c2nc(NC3CCN(S(C)(=O)=O)CC3)ncc2C(F)(F)F)cn1-c1ccc(C2CN(C)C2)cc1F [Example 417, 4-(1-(2-Fluoro-4-(1-methylazetidin-3-yl)phenyl)-2-methyl-1H-imidazol-4-yl)-N-(1-(methylsulfonyl)piperidin-4-yl)-5-(trifluoromethyl)pyrimidin-2-amine]
CS(=O)(=O)N1CCC(Nc2ncc(C(F)(F)F)c(-c3cn(-c4ccc(Cn5cnnc5)cc4Cl)cn3)n2)CC1 [Example 239, 4-(1-(4-((4H-1,2,4-Triazol-4-yl)methyl)-2-chlorophenyl)-1H-imidazol-4-yl)-N-(1-(methylsulfonyl)piperidin-4-yl)-5-(trifluoromethyl)pyrimidin-2-amine]
CC(C)NCc1cccc(-n2cnc(-c3nc(NC4CCN(S(C)(=O)=O)CC4)ncc3C(F)(F)F)c2)c1Cl [Example 360, 4-(1-(2-Chloro-3-((isopropylamino)meth-yl)phenyl)-1H-imidazol-4-yl)-N-(1-(methylsulfonyl)piperidin-4-yl)-5-(trifluoromethyl)pyrimi-din-2-amine]
CCS(=O)(=O)N1CCC(Nc2ncc(C(F)(F)F)c(-c3cn(CC(C)(C)O)cn3)n2)CC1 [Example 324, 1-(4-(2-((1-(Ethylsulfonyl)piperidin-4-yl)amino)-5-(trifluoromethyl)pyrimidin-4-yl)-1H-imidazol-1-yl)-2-methylpropan-2-ol]
CCNCc1ccc(-n2cnc(-c3nc(N[C@H]4CCN(S(C)(=O)=O)C[C@H]4C)ncc3C(F)(F)F)c2)c(Cl)c1 [Example 218, 4-(1-(2-Chloro-4-((ethylamino)methyl)-phenyl)-1H-imidazol-4-yl)-N-((3R,4S)-3-methyl-1-(methyl-sulfonyl)piperidin-4-yl)-5-(trifluoro-methyl)-pyrimidin-2-amine]
Cn1cc(S(=O)(=O)N2CCC(Nc3ncc(C(F)(F)F)c(-c4ncn(C)c4Br)n3)CC2)cn1 [Example 383, 4-(5-Bromo-1-methyl-1H-imidazol-4-yl)-N-(1-((1-methyl-1H-pyrazol-4-yl)sulfonyl)piperidin-4-yl)-5-(trifluoromethyl)pyrimidin-2-amine]
CS(=O)(=O)N1CCC(Nc2ncc(C(F)(F)F)c(-c3cn(-c4ccc(CNCC#N)cc4Cl)cn3)n2)CC1 [Example 187, 2-((3-Chloro-4-(4-(2-((1-(methylsulfonyl)-piperidin-4-yl)amino)-5-(trifluoromethyl)-pyrimidin-4-yl)-1H-imidazol-1-yl)benzyl)-amino)acetonitrile]
CN1CCN(c2nccc(-n3cnc(-c4nc(NC5CCN(S(C)(=O)=O)CC5)ncc4C(F)(F)F)c3)c2Cl)CC1 [Example 319, 4-(1-(3-Chloro-2-(4-methylpiperazin-1-yl)pyridin-4-yl)-1H-imidazol-4-yl)-N-(1-(methylsulfonyl)piperidin-4-yl)-5-(trifluoromethyl)pyrimidin-2-amine]
Cc1ncn(C)c1-c1ccc(-n2cnc(-c3nc(NC4CCN(S(C)(=O)=O)CC4)ncc3C(F)(F)F)c2)c(Cl)c1 [Example 123, 4-(1-(2-Chloro-4-(1,4-dimethyl-1H-imidazol-5-yl)phenyl)-1H-imidazol-4-yl)-N-(1-(methylsulfonyl)-piperidin-4-yl)-5-(trifluoromethyl)-pyrimidin-2-amine]
CS(=O)(=O)N1CCC(Nc2ncc(C(F)(F)F)c(-c3cn(-c4ccccc4F)c(Br)n3)n2)CC1 [Example 461, 4-(2-Bromo-1-(2-fluorophenyl)-1H-imidazol-4-yl)-N-(1-(methylsulfonyl)piperidin-4-yl)-5-(trifluoromethyl)pyrimidin-2-amine]
CS(=O)(=O)N1CCC(Nc2ncc(C(F)(F)F)c(-c3cn(-c4cccc(CN5CCC5)c4Cl)cn3)n2)CC1 [Example 366, 4-(1-(3-(Azetidin-1-ylmethyl)-2-chlorophenyl)-1H-imidazol-4-yl)-N-(1-(methylsulfonyl)piperidin-4-yl)-5-(trifluoromethyl)pyrimi-din-2-amine]
CS(=O)(=O)N1CCC(Nc2ncc(C(F)(F)F)c(-c3cn(-c4ccc(CN5CCC5)c(F)c4Cl)cn3)n2)CC1 [Example 269, 4-(1-(4-(Azetidin-1-ylmethyl)-2-chloro-3-fluorophenyl)-1H-imidazol-4-yl)-N-(1-(methylsulfonyl)piperidin-4-yl)-5-(trifluoromethyl)pyrimidin-2-amine]
CCS(=O)(=O)N1CCC(Nc2ncc(C(F)(F)F)c(-c3cn(-c4cccnc4C#N)cn3)n2)CC1 [Example 89, 3-(4-(2-((1-(Ethylsulfonyl)piperidin-4-yl)amino)-5-(trifluoromethyl)pyrimidin-4-yl)-1H-imidazol-1-yl)picolinonitrile]
Cc1nc(-c2nc(NC3CCN(S(C)(=O)=O)CC3)ncc2C(F)(F)F)cn1-c1ccc(N2CCN(C(C)C)CC2)cc1F [Example 105, 4-(1-(2-Fluoro-4-(4-isopropyl-piperazin-1-yl)-phenyl)-2-methyl-1H-imidazol-4-yl)-N-(1-(methyl-sulfonyl)piperidin-4-yl)-5-(trifluoro-methyl)pyrimidin-2-amine]
CC(C)(O)Cn1cnc(-c2nc(N[C@H]3CCN(S(=O)(=O)C4CC4)C[C@H]3F)ncc2C(F)(F)F)c1 [Example 323, 1-(4-(2-(((3R,4S)-1-(Cyclopropylsulfonyl)-3-fluoropiperidin-4-yl)amino)-5-(trifluoromethyl)pyrimidin-4-yl)-1H-imidazol-1-yl)-2-methylpropan-2-ol]
Cc1nc(-c2nc(NC3CCN(S(C)(=O)=O)CC3)ncc2C(F)(F)F)cn1-c1ccc(C2CN(CCO)C2)cc1F [Example 420, 2-(3-(3-Fluoro-4-(2-methyl-4-(2-((1-(methylsulfonyl)piperidin-4-yl)amino)-5-(trifluoromethyl)pyrimidin-4-yl)-1H-imidazol-1-yl)phenyl)azetidin-1-yl)ethan-1-ol]
CCN1CCN(c2nccc(-n3cnc(-c4nc(NC5CCN(S(C)(=O)=O)CC5)ncc4C(F)(F)F)c3)c2Cl)CC1 [Example 318, 4-(1-(3-Chloro-2-(4-ethylpiperazin-1-yl)pyridin-4-yl)-1H-imidazol-4-yl)-N-(1-(methylsulfonyl)piperidin-4-yl)-5-(trifluoromethyl)pyrimidin-2-amine]
CC1(O)CCN(Cc2ccc(-n3cnc(-c4nc(NC5CCN(S(C)(=O)=O)CC5)ncc4C(F)(F)F)c3)c(C(F)(F)F)c2)CC1 [Example 262, 4-Methyl-1-(4-(4-(2-((1-(methylsulfonyl)piperidin-4-yl)amino)-5-(trifluoromethyl)pyrimidin-4-yl)-1H-imidazol-1-yl)-3-(trifluoromethyl)benzyl) piperidin-4-ol]
CN(C)CCNc1ccc(-n2cnc(-c3nc(NC4CCN(S(C)(=O)=O)CC4)ncc3C(F)(F)F)c2)c(C#N)c1 [Example 432, 5-((2-(Dimethylamino)ethyl)amino)-2-(4-(2-((1-(methylsulfonyl)piperidin-4-yl)amino)-5-(trifluoromethyl)pyrimidin-4-yl)-1H-imidazol-1-yl)benzonitrile]
Cc1nc(-c2nc(N[C@H]3CCN(S(C)(=O)=O)C[C@H]3F)ncc2C(F)(F)F)cn1-c1ccc(CNC2CC2)cc1F [Example 408]
CCNC(C)c1cccc(-n2cnc(-c3nc(NC4CCN(S(C)(=O)=O)CC4)ncc3C(F)(F)F)c2)c1Cl (centres unmarked) [Example 375, 4-(1-(2-Chloro-3-(1-(ethylamino)ethyl)phenyl)-1H-imidazol-4-yl)-N-(1-(methylsulfonyl)piperidin-4-yl)-5-(trifluoromethyl)pyrimidin-2-amine]
CS(=O)(=O)N1CCC(Nc2ncc(C(F)(F)F)c(-c3cn(-c4ccc(CN5CCCC5)cc4C#N)cn3)n2)CC1 [Example 346, 2-(4-(2-((1-(Methylsulfonyl)piperidin-4-yl)amino)-5-(trifluoromethyl)pyrimidin-4-yl)-1H-imidazol-1-yl)-5-(pyrrolidin-1-ylmethyl)benzonitrile]
CCNCc1cc(F)c(-n2cnc(-c3nc(NC4CCN(S(C)(=O)=O)CC4)ncc3C(F)(F)F)c2)c(Cl)c1 [Example 393, 4-(1-(2-Chloro-4-((ethylamino)methyl)-6-fluorophenyl)-1H-imdazol-4-yl)-N-(1-(methylsulfonyl)piperidin-4-yl)-5-(trifluoromethyl)pyrimidin-2-amine]
CCNCc1ccc(-n2cc(-c3nc(NC4CCN(S(C)(=O)=O)CC4)ncc3C(F)(F)F)nc2C)c(F)c1 [Example 359, 4-(1-(4-((Ethylamino)methyl)-2-fluorophenyl)-2-methyl-1H-imidazol-4-yl)-N-(1-(methylsulfonyl)piperidin-4-yl)-5-(trifluoromethyl)pyrimidin-2-amine]
Cn1cc(-c2nc(NC3CCN(S(C)(=O)=O)CC3)ncc2C(F)(F)F)nc1CC(C)(C)O [Example 18, 2-Methyl-1-(1-methyl-4-(2-((1-(methylsulfonyl)piperidin-4-yl)amino)-5-(trifluoromethyl)pyrimidin-4-yl)-1H-imidazol-2-yl)propan-2-ol]
C[C@@]1(O)CCN(Cc2cccc(-n3cnc(-c4nc(NC5CCN(S(C)(=O)=O)CC5)ncc4C(F)(F)F)c3)c2Cl)C1 [Example 363, (R)-1-(2-Chloro-3-(4-(2-((1-(methylsulfonyl)piperidin-4-yl)amino)-5-(trifluoromethyl)pyrimi-din-4-yl)-1H-imidazol-1-yl)benzyl)-3-methylpyrrolidin-3-ol]
